# Values quoted from earlier work as cited in US20090214446A1, “CYCLODEXTRIN INCLUSION COMPLEXES AND METHODS OF PREPARING SAME” (CARGILL, INCORPORATED, priority 2005, published 2009).
# Conditions: octanol/water
row,Structure (SMILES),log P
1,CCc1occc(=O)c1O [ethyl maltol],0.30
2,CC(=O)C(C)=O [diacetyl],−1.34
3,C=C(C)[C@H]1CC=C(C)CC1 [limonene],4.83
